Experimental data: US12157778B2, “Peptides for activation of cell signaling in osteoprogenitor cells” (The Regents of the University of California, priority 2018, dated 2024)

Experiments:
[1] = In vivo anabolic effects, 4-month-old mice, 5 μg/kg s.c. 5×/week for 21 days; conditions: for increase in femoral trabecular bone volume: vs PBS, YLL8 5 μg/kg, hPTH (1-34) 25 μg/kg
Experimental: FIGS. 10A-10D show the effects of YLL8 on bone formation in vivo. […] All mice received Alizarin red and Calcein at −7 and −2 days before euthanization.
Four-month-old female and male mice were treated with PBS control, YLL3 at 5 μg/kg, YLL8 at 5 μg/kg, or PTH at 25 μg/kg, sc., 5×/week for 28 days (n=4-6/group). Trabecular bone volume was obtained by micro CT scans at the distal femoral metaphysis. Osteocalcin and CTX-1 were measured at the serum.
In another similar study to determine whether YLLs would affect bone metabolism in vivo, YLL3 and YLL8 were injected into 4-month-old female and male mice at 5 μg/kg subcutaneously ([…]). hPTH (1-34) was injected s.c. at 25 μg/kg, 5×/week as a positive control. […] Both YLL8 and hPTH (1-34) increased femoral trabecular bone volume by approximately 130% in the female mice, compared to the PBS-treated mice. In the male mice, YLL8 increase femoral trabecular bone volume by approximately 70%, and hPTH (1-34) increased femoral trabecular bone volume by approximately 30% (FIG. 10A). Mineral apposition rate, a parameter corresponding to osteoblast activity, was increased by more than 70% in the females and about 30% in the males, resulting in an overall increase in surface-based bone formation rate (FIGS. 10A, 10B). The anabolic effect of YLLs was confirmed by increased trabecular bone mass measured at the distal femur metaphysis by micro CT and serum level of osteocalcin (FIG. 11).

[2] = Alendronate-conjugated peptides on bone metabolism in 2-month-old female mice; type: in vivo; conditions: at the two doses used
Experimental: FIGS. 15A-15C show two-month-old female mice treated with PBS control; YLL3-Aln or YLL8-Aln at 100 […], subcutaneously, once every two weeks for 2 doses; or YLL3-Aln or YLL8-Aln at 500 m/kg, one IV dose. Mice were euthanized at 28 days (n=4-5/group).
Trabecular bone formation was measured in the distal femoral metaphysis. *, p<0.05 vs PBS. Arrows show double labeled bone surfaces.
Next, the effects of alendronate-conjugated peptides on bone metabolism were evaluated. Two-month-old female mice were treated with PBS control, YLL3-Ale or YLL8-Ale at 100 μg/kg (25 nmol) or 300 μg/kg (75 nmol), subcutaneously, once every other week, or with one IV dose of 500 μg/kg. Two injections were given per mouse. The total cumulative doses were between 200 and 600 μg/kg/month (25-150 nmol), respectively. Alendronate concentration was approximately 1/10-⅕ of the compound. […] In contrast, YLL8-Ale at the 300 μg/kg×2 SC doses or 500 μg/kg×1 IV dose increased trabecular bone volume by more than 20% (p<0.05 vs. PBS) which was associated with increased trabecular thickness (30%, p<0.05 vs. PBS) (FIG. 15A and FIG. 15B) and number (28%, p<0.05 vs. PBS). Both 100 μg/kg and 300 μg/kg doses of YLL8-Ale increased cortical bone volume by approximately 16% and cortical thickness by approximately 15% (FIG. 15C).

Compound: Cc1ccccc1NC(=O)Nc1ccc(CC(=O)N[C@@H](CCCCNC(=O)CCc2cccnc2)C(=O)N[C@@H](CCCC(=O)O)C(=O)NC2(C(N)=O)CCCCC2)cc1 [YLL8]
- body weights and visible side-effects ([1]; 5 μg/kg s.c., daily injection for 21 days): did not change body weights or cause any visible side-effects

Compound: Cc1ccccc1NC(=O)Nc1ccc(CC(=O)N[C@@H](CCCNC(N)=O)C(=O)N[C@@H](CCC(=O)O)C(=O)N[C@@H](CO)C(=O)N[C@H](C(=O)NCCOCCOCCNC(=O)CCC(=O)NCCOCCOCCNC(=O)CCC(=O)N[C@@H](CCCCNC(=O)[C@H](N)CSC2CC(=O)N(CC3CCC(C(=O)NCCCC(O)(P(=O)(O)O)P(=O)(O)O)CC3)C2=O)C(N)=O)C(C)C)cc1 (stereo partly shown) [YLL3-Ale]
- bone formation or bone mass compared to PBS control [2]: failed to achieve statistically significant differences

Compound: CC[C@H](C)[C@H](NC(=O)[C@H](CCC(=O)O)NC(=O)[C@H](CO)NC(=O)[C@@H](NC(=O)[C@@H](N)CO)C(C)C)C(=O)N[C@@H](CCC(N)=O)C(=O)N[C@@H](CC(C)C)C(=O)N[C@@H](CCSC)C(=O)N[C@@H](Cc1cnc[nH]1)C(=O)N[C@@H](CC(N)=O)C(=O)N[C@@H](CC(C)C)C(=O)NCC(=O)N[C@@H](CCCCN)C(=O)N[C@@H](Cc1cnc[nH]1)C(=O)N[C@@H](CC(C)C)C(=O)N[C@@H](CC(N)=O)C(=O)N[C@@H](CO)C(=O)N[C@@H](CCSC)C(=O)N[C@@H](CCC(=O)O)C(=O)N[C@@H](CCCN=C(N)N)C(=O)N[C@H](C(=O)N[C@@H](CCC(=O)O)C(=O)N[C@@H](Cc1c[nH]c2ccccc12)C(=O)N[C@@H](CC(C)C)C(=O)N[C@@H](CCCN=C(N)N)C(=O)N[C@@H](CCCCN)C(=O)N[C@@H](CCCCN)C(=O)N[C@@H](CC(C)C)C(=O)N[C@@H](CCC(N)=O)C(=O)N[C@@H](CC(=O)O)C(=O)N[C@H](C(=O)N[C@@H](Cc1cnc[nH]1)C(=O)N[C@@H](CC(N)=O)C(=O)N[C@@H](Cc1ccccc1)C(=O)O)C(C)C)C(C)C [hPTH (1-34), Teriparatide]
- increase in femoral trabecular bone volume ([1]; female mice): approximately 130%
- increase in femoral trabecular bone volume ([1]; male mice): approximately 30%
